The test system of one data set is ABCA4−/− mice. The experiment in a line: Drug holiday after 28 days of HPR: A2E and precursors in eyecup extracts (HPLC). Conditions: 28-day drug holiday. The class given is in vivo. On the procedure: HPR (10 mg/kg in DMSO) was administered to ABCA4−/− mice daily for a period of 28 days. Control ABCA4−/− mice received only DMSO for the same period. […] Importantly, the observed reductions in lipofuscin autofluorescence persist long after cessation of HPR therapy. HPR (10 mg/kg), or DMSO, administration was discontinued following 28 days of treatment and re-evaluated A2E and precursor levels after 2 weeks and after 4 weeks.
We examined eyecup extracts by HPLC and employed detection by absorbance and fluorimetry. Identity of the indicated peaks was confirmed by on-line spectral analysis and by co-elution with authentic standards. […] Further, the A2E and precursor (A2PE-H2 and A2PE) levels after a […] or 28-day drug holiday remained at or near the levels immediately following 28 days of treatment (i.e., ca. 50% reduction relative to control), although after the 28-day drug holiday, the amount of A2E and precursor (A2PE-H2 and A2PE) had increased by a few percentage points relative to the 12-day drug holiday levels. […] It is clear that peak fluorescence tracks with the abundance of A2E, A2PE and A2PE-H2.

The next data set deals with TTR binding to RBP (Homo sapiens, UniProt P02753). The data set can be described thus: Size exclusion study of transthyretin (TTR) binding to RBP. The following applies: 10 μM Apo-RBP; for binding of ligand-RBP to TTR: gel filtration, 360/330 nm absorbance. Here is the method: Apo-RBP at 10 μM was incubated with […] in PBS at room temperature for 1 hour. 10 μM of TTR was then added to the solution, and the mixture was incubated for another hour at room temperature. […] of the sample mixtures with and without TTR addition were analyzed by BioRad Bio-Sil SEC 125 Gel Filtration Column (300×7.8 mm). In control experiments, atROL-RBP and atROL-RBP-TTR mixture were analyzed in the same manner.

Data set [1] concerns the target Retinol Binding Protein (RBP) (Homo sapiens, UniProt P02753). The experiment in a line: Fluorescence quenching study of MPR binding to retinol binding protein. Here is the method: Apo-RBP at 0.5 μM was incubated with 0, 0.25, 0.5, 1 and 2 μM of MPR in PBS at room temperature for 1 hour, respectively. As controls, the same concentration of Apo-RBP was also incubated with 1 μM of HPR or 1 μM of atROL. All mixtures contained 0.2% Ethanol (v/v). The emission spectra were measured between 290 nm to 550 nm with excitation wavelength at 280 nm and 3 nm bandpass.

The next data set deals with retinol-RBP-TTR complex (Homo sapiens, UniProt P02753). The data set can be described thus: High-throughput FRET assay for RBP/TTR interaction. In kind it is binding. The following applies: conditions as for HPR, FIG. 6. From the text: Reduction of serum retinol and RBP are correlated with concomitant reductions in toxic lipofuscin fluorophores. Because compounds that affect RBP-TTR interaction will directly affect fluorophore levels in the eye, a high-throughput screen for small molecules which prevent interaction of RBP with TTR was developed. This screen employs probe-labeled forms of RBP and TTR which participate in a unique fluorescence resonance energy transfer (FRET) event when complexed. Compounds which interfere with RBP-TTR interaction prevent FRET. Sample spectra taken during the course of this type of assay are shown, in FIG. 4. […] The sample is incubated at 37° C. for 30 min and then illuminated with 330 nm light. The emission spectra are shown in the range of 400-600 nm. HPR binds to RBP and prevents interaction with TTR, and here this property of HPR is utilized here to validate the ability of this screen to detect inhibition of RBP-TTR interaction. […] Additionally, the design of this assay permits discrimination between compounds which interact with RBP versus those which interact with TTR. Thus, by using two distinct excitation energies (280 nm and 330 nm, for protein and retinol, respectively) and implementing simultaneous monitoring of the retinol and TTR-probe fluorescence, the “target” of a presumptive small molecule can be easily determined.
Accordingly, HPR was employed at varied concentrations (from 0-4 μM), using the conditions specified in Example 7, to evaluate the high throughput assay.
The mechanism of action underlying this effect can be explained by the disruption of RBP-TTR interactions. In order to explore this possibility and to further validate the RBP-TTR screen, the effects of all-trans retinoic and 13-cis retinoic acid, using the conditions the conditions specified for analysis of HPR, were examined.

For data set [2] the following is noted: several investigators; Berni et al. 1993; cited from earlier work.

`COc1ccc(NC(=O)\C=C(C)/C=C/C=C(C)\C=C\C2=C(C)CCCC2(C)C)cc1` (stereo in doubt) [MPR, N-(4-methoxyphenyl)retinamide]: the “detection of HPR or HPR metabolites in the eyes” value in the data set with ABCA4−/− mice was “unable to detect”. Moreover, the “binding of RBP to ligand (360 nm absorbance in RBP elution peak)” value on TTR binding to RBP is listed as “RBP binds to MPR”. On TTR binding to RBP (10 μM TTR), the “effect on binding of TTR to RBP” value was “inhibits the binding of TTR to RBP” and the “binding of ligand-RBP to TTR” value is on record as “did not bind to TTR”. Besides, the “quenching of RBP fluorescence” value in data set [1] (0.5 μM Apo-RBP, 0-2 μM MPR, room temperature 1 hour, excitation 280 nm) is given as “concentration-dependent quenching”. The “degree of quenching compared with other ligands” value in data set [1] (controls at 1 μM) was “smaller than those by atROL and HPR”. Further, the “concentration at which quenching saturated” value in data set [1] (for 0.5 μM of RBP) is 1 µM.
For the compound `CC1=C(/C=C/C(C)=C/C=C/C(C)=C/C(=O)O)C(C)(C)CCC1` [all-trans retinoic, all-trans-retinoic acid], the “inhibition of RBP-TTR interaction” value at retinol-RBP-TTR complex is on record as “inhibitors of RBP-TTR interaction”. Further, in data set [2], the “reduction in circulating RBP and retinol” value was “observed in vivo”.
In the case of `CC1=C(/C=C/C(C)=C/C=C/C(C)=C/CO)C(C)(C)CCC1` [atROL, all-trans retinol], the “binding of ligand-RBP to TTR” value on TTR binding to RBP (10 μM TTR) is on record as “binds to TTR”. Moreover, the “binding to RBP” value in data set [1] (1 μM ligand, 0.5 μM Apo-RBP) is given as “bind to RBP”.
Turning to `CC1=C(/C=C/C(C)=C/C=C/C(C)=C\C(=O)O)C(C)(C)CCC1` [13-cis retinoic acid, 13-cis-retinoic acid], the “inhibition of RBP-TTR interaction” value against retinol-RBP-TTR complex was “inhibitors of RBP-TTR interaction”.

The values above are taken from patent US20120202885A1, “METHODS, ASSAYS AND COMPOSITIONS FOR TREATING RETINOL-RELATED DISEASES” (ReVision Therapeutics, Inc., priority 2004, published 2012).
